Assay results as given in paper PMC11645267, “Novel pharmacologic inhibition of lysine-specific demethylase 1 as a potential therapeutic for glioblastoma” (Cancer Gene Therapy, 2024).

Tests used:
glioma stem cells (GSCs) = experiment: Cell growth / viability in glioma stem cells; assay type: cell-based
From the text: Inhibition of LSD1 can effectively suppress stem-like tumor-propagating cells in human glioma.
Supplementary materials and methods
RNA-seq data of malignant glioma (n=157) and normal tissue (n=5) were obtained from TCGA (http://xena.ucsc.edu/).
Cell lines and culture conditions
Glioblastoma cell line, LN229, was obtained from the American Type Culture Collection (ATCC, Manassas, VA, USA). Normal fibroblast cell lines TIG3 and WI-38, TM31 (low grade glioma) were obtained from the RIKEN Bioresource Research Center (Tsukuba, Japan). Onda10 and KINGS1 (low grade glioma) cell lines were obtained from the Japanese Collection of Research Bioresources (Ibaraki, Japan). F3 is utilized as a neural stem cell line{Kim, 2004 #1412}{Natsume, 2013 #1009}. All cells were maintained in DMEM medium (Wako, Osaka, Japan) containing 5% fetal bovine serum (FBS, Thermo Fisher Scientific, Waltham, MA, USA) and 1% penicillin-streptomycin (Wako). Glioma stem cell lines (GSC1228, GSC316, and GSC222) were established previously{Natsume, 2013 #1009}{Katsushima, 2016 #1156}. […]
For the cell proliferation assay, cells at a density of 1 × 10^5 cells per well were seeded before treatment with LSD1 inhibitors. Cell proliferation was measured after 4 days using a Cell Counting Kit 8 (Dojindo, Kumamoto, Japan) according to the manufacturer ’s […]

GSC and LN229 cells = experiment: PARP cleavage (apoptosis) by western blot; assay type: cell-based; settings: GSC1228, GSC222, GSC316, LN229; 5 μM
From the text: Super-enhancers consist of enhancer clusters with abundant binding of transcription factors and are highly enriched with H3K27ac marks. The H3K4me2 increased regions included the MYC locus and H3K4me2 de novo regions comprised Nestin and SOX2 loci (Fig. 2F, Supplementary Fig. S5A). These regions were also identified as super-enhancers in GSCs using data from our previous study (Fig. 2F). Compared to the large increase in H3K4me2 in these regions, changes in H3K4me3 were subtle after S2172 treatment (only 2582 regions were acquired modification) (Fig. 2C). Increasing the me2/me3 ratio at H3K4 is associated with reduced gene expression.
A mRNA expression of stem cell marker genes following 96 h treatment of GSC1228 with S2172 (5 μM). The y-axis indicates the expression change relative to DMSO-treated cells. Error bar indicates the SD. *P < 0.05. B Left panel, western blot analysis of MYC, Nestin, and SOX2 after treatment of GSC1228 with either DMSO or S2172 (5 μM) for 96 h. β-actin (ACTB) was used as the loading control. Right panel, Quantification of band signal intensities from the western blot. […] The ratio was calculated by dividing the cleaved-PARP band intensity by the full length-PARP band intensity. […]
[…] Quantification of signal intensity of western blot (right panel). […] Ratio was calculated by dividing cleaved band intensity by total protein band intensity. […]

IC50 (glioma stem cells (GSCs); mean over glioma stem cells, read-out: mean half-maximal inhibitory concentration (IC50), cell growth in GSCs): 13.8 µM
SMILES: NC1CCC(NC2CC2c2cc(F)cc(F)c2OCc2ccccc2)CC1 (stereo not drawn) [S2172]
viability at 5 µM (glioma stem cells (GSCs); GSC cells, 5 μM, read-out: viable cells): < 80% | apoptosis, increased cleaved PARP (GSC and LN229 cells): induced apoptosis
